In PubChem BioAssay (NCI):
Several values for one entry are separate records, joined by “and”; a condition that tells them apart may be missing. Equal values may be shown once.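 Briefly, cells in 96-well plates were exposed to five compound concentrations for 48 h, and endpoints were estimated by linear interpolation. GI50 is the concentration that inhibits growth by half. Definition used: TGI = concentration required for complete inhibition of growth.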 *1 amine or outer side, *2 acyl side, *3 side chain or, on linkers, in order; H or OH if unused. Where a SMILES comes first, the peptide text is derived from it. Bridges are numbered along the chain shown (N, C = ends). Roman numbers before positions name the chains, in order. [ ]: non-standard residue; d: D form. Actinocin(1to9) = Cc1c2oc3c(C)ccc(C(=O)[*:2])c3nc-2c(C(=O)[*:1])c(N)c1=O; NMeV = CN[CH](C(=O)O)C(C)C; Sar = CNCC(=O)O

Experiments:
Experiment in all cases: growth of human tumour cells (NCI), 48 h
ACHN renal = system: ACHN renal
COLO 205 colon = system: COLO 205 colon
DU-145 prostate = system: DU-145 prostate
EKVX NSCLC = system: EKVX NSCLC
HCC-2998 colon = system: HCC-2998 colon
HL-60(TB) leukemia = system: HL-60(TB) leukemia
NCI-H23 lung = system: NCI-H23 lung
SF-539 CNS = system: SF-539 CNS
UO-31 renal = system: UO-31 renal
HCT-15 colon = system: HCT-15 colon
MCF7 breast = system: MCF7 breast
MOLT-4 leukemia = system: MOLT-4 leukemia
NCI-H460 lung = system: NCI-H460 lung
NCI/ADR-RES ovarian = system: NCI/ADR-RES ovarian
RPMI-8226 leukemia = system: RPMI-8226 leukemia
SK-MEL-28 melanoma = system: SK-MEL-28 melanoma
U251 CNS = system: U251 CNS

Structure (SMILES)	TGI (ACHN renal)	TGI (COLO 205 colon) [µM]	TGI (DU-145 prostate) [µM]	GI50 (EKVX NSCLC) [µM]	TGI (EKVX NSCLC)	GI50 (HCC-2998 colon) [µM]	TGI (HL-60(TB) leukemia) [µM]	TGI (NCI-H23 lung) [µM]	TGI (SF-539 CNS) [µM]	GI50 (UO-31 renal) [µM]	TGI (UO-31 renal)	TGI (HCC-2998 colon) [µM]	TGI (HCT-15 colon) [µM]	TGI (MCF7 breast) [µM]	TGI (MOLT-4 leukemia) [µM]	TGI (NCI-H460 lung) [µM]	TGI (NCI/ADR-RES ovarian) [µM]	TGI (RPMI-8226 leukemia) [µM]	TGI (SK-MEL-28 melanoma) [µM]	TGI (U251 CNS) [µM]
COc1ccc(CC2NC(=O)C(NC(=O)c3c4nc5c(C(=O)NC6C(=O)NC(Cc7ccc(OC)cc7)C(=O)N7CCCC7C(=O)N(C)CC(=O)N(C)C(C(C)C)C(=O)OC6C)ccc(C)c5oc-4c(C)c(=O)c3N)C(C)OC(=O)C(C(C)C)N(C)C(=O)CN(C)C(=O)C3CCCN3C2=O)cc1 (stereo not given) (I: TY(Me)P[Sar][NMeV] / II: TY(Me)P[Sar][NMeV]; ester I:1-I:C, II:1-II:C; linker I:N-II:N via Actinocin(1to9); configuration not given here)	1.66 µM and 1.55 µM	0.0172	0.0843	0.0514	3.27 µM and 0.862 µM	0.013	< 0.001	0.126	0.0257	0.0327	0.46 µM and 0.257 µM	–	–	–	–	–	–	–	–	–
C[Si](C)(C)CCOCN(C(=O)C1=CCC2(CC1)OCCO2)c1ccccc1I	44 µM	> 100	> 100	–	29.1 µM	–	–	39	53.4	–	38.9 µM	50.5	41.6	34.4	98.7	61.3	> 100	52.2	42.9	> 100
CC(=O)Nc1ccc2cc(C#N)c(=O)[nH]c2n1	> 100 µM	> 100	–	–	> 100 µM	–	–	> 100	> 100	–	> 100 µM	> 100	> 100	> 100	> 100	> 100	> 100	> 100	> 100	> 100
NN/C(=N\S(=O)(=O)c1cc(S(=O)(=O)c2ccccc2)cs1)Nc1ccc(Cl)cc1	> 100 µM	43.4	> 100	–	55.7 µM	–	32.7	> 100	> 100	–	> 100 µM	–	> 100	> 100	56.2	56.6	> 100	> 100	> 100	89.6
C=C(C)C1Cc2c(cc3c(c2O)c(=O)c2ccccc2n3C)O1 (stereo not given)	35.7 µM	12.3	–	–	35.3 µM	–	–	5.34	5.99	–	4.01 µM	28.3	9.93	17	1.99	19	8.19	9.72	24.9	12.7
COC(=O)C(Cc1c(-c2[nH]c3ccccc3c2CC(NC(C)=O)C(=O)OC)[nH]c2ccccc12)NC(C)=O (stereo not given)	> 100 µM	> 100	> 100	–	> 100 µM	–	> 100	> 100	> 100	–	> 100 µM	–	> 100	–	> 100	> 100	> 100	> 100	> 100	> 100
Cc1ccc(S(=O)(=O)NC(=O)NC(CCCCN)C(=O)O)cc1 (stereo not given)	> 100 µM	> 100	> 100	–	–	–	> 100	> 100	> 100	–	> 100 µM	–	> 100	> 100	> 100	> 100	> 100	> 100	> 100	> 100
Cc1cc(C(O)CCCc2ccccc2)cc(C)c1O (stereo not given)	92.3 µM	> 100	–	–	75.9 µM	–	41.9	> 100	> 100	–	60.4 µM	> 100	> 100	–	73.8	> 100	–	> 100	> 100	> 100
O=c1nc(N2CCCCC2)sc2[nH]c3ccccc3c12	> 100 µM	> 100	> 100	–	> 100 µM	–	> 100	26.2	> 100	–	54.9 µM	–	> 100	–	> 100	> 100	25.7	> 100	> 100	> 100
CC1=CP(=O)(OC(C)C)C=C(C)C1=C(Cl)Cl (stereo not given)	> 100 µM	35	–	–	> 100 µM	–	> 100	> 100	> 100	–	27.2 µM	> 100	> 100	–	> 100	> 100	–	> 100	> 100	> 100
C#CCNCC(=O)O	> 100 µM	> 100	> 100	–	> 100 µM	–	–	> 100	> 100	–	> 100 µM	> 100	> 100	> 100	> 100	–	> 100	> 100	> 100	> 100
C=C1C(=O)O[C@H]2C(=O)[C@H](C)CCC/C(C)=C/CC[C@@]3(C)O[C@@H]3C[C@@H]12	2.63 µM	3.54	11.1	–	–	–	6.8	29.3	6.63	–	3.18 µM	–	3.12	15	4.72	30.8	40.5	4.79	–	13.3
O=C(O[C@H](/C=C/c1ccccc1)P1(=O)N(Cc2ccccc2)[C@H]2CCCC[C@@H]2N1Cc1ccccc1)c1ccccc1	> 100 µM	3.27	–	–	> 100 µM	–	> 100	48.3	> 100	–	38.3 µM	> 100	> 100	> 100	–	> 100	> 100	17.8	> 100	88.7
CCc1cccc(C(C)C)c1NC(=O)C(=O)Nn1c(=S)[nH]c2ccccc2c1=O	> 100 µM	–	–	–	> 100 µM	–	–	> 100	> 100	–	> 100 µM	> 100	> 100	> 100	> 100	> 100	> 100	> 100	> 100	> 100
O=C1NC(=S)NC(=O)C1=Cc1ccc([N+](=O)[O-])o1	34.6 µM	38.2	–	–	42.8 µM	–	87.6	31.9	61.1	–	> 100 µM	> 100	32.6	–	43.4	> 100	–	54	47.7	> 100
CNc1ccc(C)cc1S(=O)(=O)c1ccccc1[N+](=O)[O-]	> 100 µM	> 100	> 100	–	> 100 µM	–	–	> 100	> 100	–	> 100 µM	> 100	> 100	65	> 100	> 100	> 100	> 100	> 100	> 100
O=C(Oc1ccc(C(c2c(O)c3ccccc3oc2=O)c2c(O)c3ccccc3oc2=O)cc1)c1ccc(C(=O)c2ccccc2)cc1	40.3 µM	> 100	> 100	–	34.6 µM	–	–	35.3	36.5	–	31.6 µM	36	89.4	> 100	41.3	45.6	34.8	56.5	36.5	54.7
C=C(CN(C)C)C(=O)c1ccccc1	7.32 µM	3.03	30.2	–	46.3 µM	–	> 20.8	45	27.1	–	19.2 µM	32.7	28	–	15.3	37.5	> 100	> 66.3	34.8	35.1
CCc1n[nH]c(=O)n1-n1c(C)ccc1C	> 100 µM	> 100	> 100	–	> 100 µM	–	–	–	–	–	> 100 µM	> 100	> 100	> 100	> 100	> 100	> 100	> 100	> 100	> 100
O=S(=O)(Cc1ccccc1)c1nnc(S(=O)(=O)c2ccc(Cl)cc2)s1	36.4 µM	36.6	34.3	–	62 µM	–	–	54.2	63.3	–	44.5 µM	–	39.8	> 100	> 100	48.2	77.9	61.9	44	94.9
O=C(Cn1c2ccc(Br)cc2c2nc3ccccc3nc21)NNC(=O)NC1CCCCC1	> 100 µM	> 100	86	–	> 100 µM	–	–	> 100	> 100	–	8.09 µM	> 100	–	> 100	67.1	> 100	–	> 100	> 100	> 100
CCN(CC)CC(C(C)=O)C(c1ccccc1)c1c(O)c2ccccc2oc1=O (stereo not given)	> 100 µM	> 100	–	–	> 100 µM	–	> 100	–	> 100	–	> 100 µM	> 100	> 100	–	> 100	> 100	–	> 100	> 100	> 100
Cc1c(N)c(C#N)c2n(C)c3ncccc3n2c1=O	> 100 µM	> 100	–	–	> 100 µM	–	> 100	> 100	> 100	–	> 100 µM	> 100	> 100	–	> 100	> 100	–	> 100	> 100	> 100
COc1ccc(NCc2cccc3c(=O)c4ccc(Cl)cc4oc23)cc1	> 100 µM	> 100	–	–	> 100 µM	–	–	> 100	> 100	–	> 100 µM	> 100	> 100	> 100	> 100	–	> 100	> 100	> 100	> 100
COc1cc2c(SCCN(C)C)nc3ccccc3c2c2ccccc12	3.64 µM	3.75	15.8	–	4.08 µM	–	–	15	3.61	–	8.09 µM	2.88	3.31	3.02	8.14	3.33	16.5	4.23	3.17	4.32
O=S(=O)(N=[Se](=O)(c1ccccc1)c1ccccc1)c1ccccc1	> 100 µM	> 100	–	–	> 100 µM	–	88.1	> 100	> 100	–	> 100 µM	> 100	> 100	> 100	> 100	> 100	> 100	> 100	> 100	> 100
CC12CCC(=O)N1[C@@H](c1ccccc1)[C@@H](c1ccccc1)O2 (stereo not given in full)	> 100 µM	> 100	–	–	–	–	> 100	–	> 100	–	> 100 µM	> 100	> 100	–	> 100	> 100	–	–	–	–
[N-]=[N+]=NC1(Cc2ccccc2)C(=O)Nc2ccccc2C1=O (stereo not given)	> 100 µM	> 100	–	–	> 100 µM	–	> 100	> 100	> 100	–	> 100 µM	> 100	> 100	–	> 100	> 100	–	–	> 100	> 100
CN(C)CCNc1ncnc2nc(-c3ccccc3)c(-c3ccccc3)nc12	–	> 100	> 100	–	> 100 µM	–	> 100	> 100	> 100	–	> 100 µM	–	–	> 100	76	–	> 100	–	> 100	> 100
Cc1cc(N(CCC#N)CCC#N)ccc1/C(Sc1ccccc1)=C(\NC(=O)/C=C/c1ccccc1)C(=O)Sc1ccccc1	18.7 µM	7.71	–	–	54.2 µM	–	5.08	11.2	3.44	–	6.15 µM	23.9	26.4	–	8.27	23.4	–	6.07	18.5	5.83
